Here are results for seven compounds from ChEMBL document CHEMBL1201862, “PubChem BioAssay data set” (2004).

The target of one assay is Aurora kinase B (Homo sapiens, UniProt Q96GD4). In kind it is functional.
The target of assay [1] is Serine/threonine-protein kinase Nek2 (Homo sapiens, UniProt P51955). In kind it is functional.
Assay [2] addresses T1, RNA-binding protein pos-1 (Caenorhabditis elegans, UniProt G5EF15).
T1 sequence (G5EF15 whole entry): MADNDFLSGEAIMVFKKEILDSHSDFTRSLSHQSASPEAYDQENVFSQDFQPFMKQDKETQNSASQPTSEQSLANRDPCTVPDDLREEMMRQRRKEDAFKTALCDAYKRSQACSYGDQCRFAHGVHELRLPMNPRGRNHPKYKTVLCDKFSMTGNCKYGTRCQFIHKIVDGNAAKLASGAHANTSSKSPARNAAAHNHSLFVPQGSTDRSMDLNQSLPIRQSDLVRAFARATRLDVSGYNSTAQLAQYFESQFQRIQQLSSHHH
As to the kind of experiment: disruptors of C. elegans POS-1 RNA interaction – biochemical, fluorescence polarization, dose response (AID 1964).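 Note: purified POS-1 fused to maltose binding protein made in E. coli; potency of compounds blocking POS-1 binding to fluorescent RNA.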

Assay [3] in a line: fluconazole-exposed Candida albicans growth modulators – fluorescence, retest, confirmation (AID 2467). In kind it is functional, cell-based.
Assay [4] can be described thus: HIV-1 AD8 envelope cell-cell fusion blockers – cherry-pick, dose response (AID 652062).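 Note: luciferase signal from cell-cell fusion driven by HIV-1 clade B AD8 Env; potency is for inhibitors of fusion seen as a drop in luminescence.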 It is filed as functional, cell-based.
Assay [5] is described as follows: blockers of HIV-1 ZM109 envelope-driven cell-cell fusion – HeLa effector, CEM target cells, luciferase, cherry-pick, dose response (AID 652058).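 Note: luciferase signal from HIV-1 Env mediated cell-cell fusion of effector and target cells.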 It is filed as functional, cell-based.
The nature of assay [6]: viability loss in HeLa cells – cytotoxicity control for MgcRacGAP inhibitor project, dose response (AID 624300). It is filed as functional.
The nature of assay [7]: Luminescence Cell-Based Dose Response HTS to Identify Inhibitors of 5'UTR Stem-Loop Driven Prion Protein mRNA Translation in H4 Neuroglioblastoma Cells. [Related pubchem assays: 1827 (Project Summary), 1813 (Primary HTS)]. It is filed as functional.
In assay [8] the target is Serine/threonine-protein kinase 3 (Homo sapiens, UniProt Q13188). In kind it is functional.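 Note: measured as one member of a kinome-wide kinase panel.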
The next assay addresses T2, Insulin-degrading enzyme (Homo sapiens, UniProt P14735).
T2 sequence (P14735 whole entry): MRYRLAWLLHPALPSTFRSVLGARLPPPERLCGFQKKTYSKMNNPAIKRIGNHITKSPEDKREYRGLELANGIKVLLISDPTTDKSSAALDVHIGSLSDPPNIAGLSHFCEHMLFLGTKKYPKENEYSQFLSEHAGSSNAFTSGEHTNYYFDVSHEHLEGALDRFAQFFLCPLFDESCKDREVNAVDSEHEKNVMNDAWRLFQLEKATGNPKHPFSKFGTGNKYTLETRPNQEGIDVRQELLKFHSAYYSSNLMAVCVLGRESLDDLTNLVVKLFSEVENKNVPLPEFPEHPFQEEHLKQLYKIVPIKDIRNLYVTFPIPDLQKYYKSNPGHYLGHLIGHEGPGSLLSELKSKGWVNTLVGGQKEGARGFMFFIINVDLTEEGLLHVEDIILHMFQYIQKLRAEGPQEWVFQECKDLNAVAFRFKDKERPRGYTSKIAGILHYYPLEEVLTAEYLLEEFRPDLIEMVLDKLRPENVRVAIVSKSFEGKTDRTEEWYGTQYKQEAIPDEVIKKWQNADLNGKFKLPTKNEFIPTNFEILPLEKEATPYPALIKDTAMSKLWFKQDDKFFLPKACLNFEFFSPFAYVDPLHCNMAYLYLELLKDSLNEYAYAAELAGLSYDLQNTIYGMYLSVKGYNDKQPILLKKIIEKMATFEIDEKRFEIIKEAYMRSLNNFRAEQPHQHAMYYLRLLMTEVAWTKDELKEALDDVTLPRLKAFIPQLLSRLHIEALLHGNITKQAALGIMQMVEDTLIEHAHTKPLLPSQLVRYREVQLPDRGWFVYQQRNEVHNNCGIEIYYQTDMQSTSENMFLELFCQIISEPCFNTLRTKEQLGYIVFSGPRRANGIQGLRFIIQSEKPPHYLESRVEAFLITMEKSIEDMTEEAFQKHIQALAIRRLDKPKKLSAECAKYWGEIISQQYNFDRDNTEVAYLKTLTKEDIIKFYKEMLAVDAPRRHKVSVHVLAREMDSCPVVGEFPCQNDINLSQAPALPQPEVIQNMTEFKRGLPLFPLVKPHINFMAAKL
Put plainly: cellular IDE activation of Abeta substrate cleavage – fluorescence polarization, HEK cells, dose response (AID 588439). It is filed as functional, cell-based. Background: In fluorescence polarisation assays a small probe gives low polarisation when free and higher when bound to something large.

The target in assay [9] is 72 kDa type IV collagenase (Homo sapiens, UniProt P08253). Put plainly: Dose Response validation of uHTS RPN11 inhibitor hits using a MMP-2 Fluorescence assay. In kind it is functional.
Assay [10] deals with T3, Lysine-specific demethylase 4C (Homo sapiens, UniProt Q9H3R0).
T3 sequence (Q9H3R0 whole entry): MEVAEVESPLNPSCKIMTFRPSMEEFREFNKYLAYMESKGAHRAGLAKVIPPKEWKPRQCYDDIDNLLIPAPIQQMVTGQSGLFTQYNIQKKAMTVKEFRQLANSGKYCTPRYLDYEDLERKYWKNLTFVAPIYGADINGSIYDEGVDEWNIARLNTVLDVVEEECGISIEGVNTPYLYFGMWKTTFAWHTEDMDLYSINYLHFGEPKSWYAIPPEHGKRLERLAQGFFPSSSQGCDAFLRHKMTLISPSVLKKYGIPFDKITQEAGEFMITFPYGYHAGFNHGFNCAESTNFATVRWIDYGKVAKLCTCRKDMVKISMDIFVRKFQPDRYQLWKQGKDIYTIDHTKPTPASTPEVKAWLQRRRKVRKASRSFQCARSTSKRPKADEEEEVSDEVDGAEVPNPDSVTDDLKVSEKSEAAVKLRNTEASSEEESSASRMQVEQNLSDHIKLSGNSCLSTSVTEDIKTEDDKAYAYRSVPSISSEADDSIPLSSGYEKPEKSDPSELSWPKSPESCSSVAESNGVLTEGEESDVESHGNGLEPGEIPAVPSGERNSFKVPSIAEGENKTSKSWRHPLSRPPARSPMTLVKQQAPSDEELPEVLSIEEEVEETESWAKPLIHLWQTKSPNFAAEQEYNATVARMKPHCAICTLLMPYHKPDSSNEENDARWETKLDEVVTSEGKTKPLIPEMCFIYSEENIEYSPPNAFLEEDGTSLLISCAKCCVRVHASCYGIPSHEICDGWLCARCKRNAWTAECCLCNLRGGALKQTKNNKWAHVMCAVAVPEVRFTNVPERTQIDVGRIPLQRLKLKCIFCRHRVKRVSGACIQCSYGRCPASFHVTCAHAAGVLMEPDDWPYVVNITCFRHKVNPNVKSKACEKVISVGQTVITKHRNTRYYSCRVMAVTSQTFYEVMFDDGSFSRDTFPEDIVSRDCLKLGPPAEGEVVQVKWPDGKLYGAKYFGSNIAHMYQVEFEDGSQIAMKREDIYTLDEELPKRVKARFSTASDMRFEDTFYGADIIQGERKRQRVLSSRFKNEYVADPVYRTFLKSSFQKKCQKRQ
As to the kind of experiment: inhibition of JMJD2C H3K9me3 demethylation – biochemical, DELFIA europium, cherry-picked samples, dose response (AID 488835). In kind it is functional.

Calls of active or inactive are those of the source. A value given as a limit tells only on which side of the number the result lay.

Chain of Serine/threonine-protein kinase Nek2 (P51955 whole entry): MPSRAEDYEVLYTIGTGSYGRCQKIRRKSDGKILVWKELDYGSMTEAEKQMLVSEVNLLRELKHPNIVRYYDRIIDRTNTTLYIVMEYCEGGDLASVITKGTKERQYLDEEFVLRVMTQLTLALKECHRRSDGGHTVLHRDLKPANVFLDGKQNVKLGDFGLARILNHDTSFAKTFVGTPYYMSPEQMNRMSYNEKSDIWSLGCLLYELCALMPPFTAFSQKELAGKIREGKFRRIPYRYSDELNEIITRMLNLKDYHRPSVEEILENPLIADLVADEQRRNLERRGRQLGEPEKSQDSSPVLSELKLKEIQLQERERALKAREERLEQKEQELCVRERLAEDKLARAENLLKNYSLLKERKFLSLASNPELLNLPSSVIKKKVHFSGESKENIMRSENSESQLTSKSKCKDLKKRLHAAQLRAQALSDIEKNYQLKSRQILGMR
Chain of 72 kDa type IV collagenase (P08253 whole entry): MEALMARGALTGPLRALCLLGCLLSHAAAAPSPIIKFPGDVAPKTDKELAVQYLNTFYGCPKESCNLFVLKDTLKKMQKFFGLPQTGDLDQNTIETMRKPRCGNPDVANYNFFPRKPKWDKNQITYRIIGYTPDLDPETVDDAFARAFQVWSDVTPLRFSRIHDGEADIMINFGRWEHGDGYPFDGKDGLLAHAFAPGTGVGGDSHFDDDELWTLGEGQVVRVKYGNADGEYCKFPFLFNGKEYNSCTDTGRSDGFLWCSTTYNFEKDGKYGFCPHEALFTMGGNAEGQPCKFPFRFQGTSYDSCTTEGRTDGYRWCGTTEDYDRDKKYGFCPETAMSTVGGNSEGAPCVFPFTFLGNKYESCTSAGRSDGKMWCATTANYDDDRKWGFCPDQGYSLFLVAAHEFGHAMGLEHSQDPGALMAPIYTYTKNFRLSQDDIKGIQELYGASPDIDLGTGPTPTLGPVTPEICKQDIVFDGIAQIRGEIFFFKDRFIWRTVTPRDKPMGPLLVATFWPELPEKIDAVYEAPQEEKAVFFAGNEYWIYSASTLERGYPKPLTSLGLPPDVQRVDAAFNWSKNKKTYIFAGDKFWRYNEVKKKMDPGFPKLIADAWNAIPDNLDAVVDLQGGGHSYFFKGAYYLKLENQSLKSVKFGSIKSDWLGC
Chain of Serine/threonine-protein kinase 3 (Q13188 whole entry): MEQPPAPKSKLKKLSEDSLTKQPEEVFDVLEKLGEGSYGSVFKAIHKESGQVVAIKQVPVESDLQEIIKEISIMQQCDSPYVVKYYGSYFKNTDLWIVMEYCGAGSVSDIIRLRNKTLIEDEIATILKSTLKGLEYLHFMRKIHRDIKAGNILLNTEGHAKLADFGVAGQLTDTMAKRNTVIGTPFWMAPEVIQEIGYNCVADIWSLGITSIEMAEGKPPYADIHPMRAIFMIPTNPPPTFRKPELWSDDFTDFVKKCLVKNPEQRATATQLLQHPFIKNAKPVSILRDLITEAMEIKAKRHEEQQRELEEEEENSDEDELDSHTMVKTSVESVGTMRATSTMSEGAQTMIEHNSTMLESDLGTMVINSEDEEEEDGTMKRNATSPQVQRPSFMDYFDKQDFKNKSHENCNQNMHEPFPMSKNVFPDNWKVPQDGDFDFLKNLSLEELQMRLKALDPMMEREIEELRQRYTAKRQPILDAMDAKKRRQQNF
Chain of Aurora kinase B (Q96GD4 whole entry): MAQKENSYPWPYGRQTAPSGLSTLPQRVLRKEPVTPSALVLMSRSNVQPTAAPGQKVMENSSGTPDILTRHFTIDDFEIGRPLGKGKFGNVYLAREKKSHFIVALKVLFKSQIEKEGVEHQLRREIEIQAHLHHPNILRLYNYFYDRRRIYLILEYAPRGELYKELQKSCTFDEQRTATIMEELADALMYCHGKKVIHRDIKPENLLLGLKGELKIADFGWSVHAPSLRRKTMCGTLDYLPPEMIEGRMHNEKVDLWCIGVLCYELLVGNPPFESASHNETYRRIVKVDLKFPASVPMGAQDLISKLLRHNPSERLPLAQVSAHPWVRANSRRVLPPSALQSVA

For orientation: Ki means the dissociation constant of the complex between target and ligand, obtained from inhibition or displacement. On to `Nc1c(-c2ccc(NC(=O)Nc3cccc(C(F)(F)F)c3)cc2)cnc2c(-c3ccc4c(c3)OCO4)cnn12`, for which the figures for the Ki (on Aurora kinase B; in [1]) were 1 µM (active) and 1.26 µM (active), respectively.
What is called EC50 is the concentration that produces a half-maximal response. Regarding `Nc1nnc2c(n1)CCCC2`, the EC50 in assay [2] is 104 µM (active).
In general, AC50 refers to the concentration giving half of the maximal activity seen. Usually CC50 stands for the concentration giving 50% cytotoxicity. Regarding `CCN1C(=Cc2sc3ccccc3[n+]2C)C=Cc2cccc(C)c21`, the EC50 is 0.054 µM (active) in [3] and 6.43 µM (active) in assay [7]. The AC50 in assay [4] is 1.05 µM (active); in assay [5] it was 7.58 µM (active). Also, the CC50 in assay [6] was 13.8 µM (active).
For `O=C(Nc1cc(-c2c[nH]c3ncccc23)cc(Cl)n1)c1ccccc1`, the Ki in assay [8] was > 3.16 µM (inactive).
On to `CNC[C@H](Cc1ccccc1)NC[C@@H](Cc1cccc2ccccc12)NCCc1ccc(C)cc1`, for which the EC50 at Insulin-degrading enzyme was 7.52 µM (active).
The IC50 is the concentration at which inhibition is half-maximal. On to `O=C(N/N=C/c1c(O)ccc2ccccc12)c1[nH]ncc1Br`, for which, in assay [9], the IC50 is > 100 µM (inactive).
As to `O=C(Cc1ccccc1Cl)NC1(O)C(=O)c2ccccc2C1=O`, the AC50 in assay [10] was 7.1 µM (active).
